What is called AUC(0-t) is exposure summed from dosing to a finite time, without extrapolation to infinity. Lower therefore signals low exposure. One may read the DC50 as the midpoint of the concentration-degradation curve. The Emax is the greatest response seen or fitted, relative to the assay's reference. For orientation: Cmax means the peak of the concentration-time curve.

These results are taken from ChEMBL document CHEMBL4433223, “Treatment of Prostate Cancers and Kennedy's Disease by PROTAC-Androgen Receptor Degradation” (ACS Med Chem Lett, 2019).

Where only a bound is given, the exact number is not on record here.

Data set [1] can be described thus: AUC (0 to 24 hrs) in CD1 mouse at 10 mg/kg, sc by LC/MS/MS analysis. Set-up: dose 10 mg/kg, time < 24 hr, route subcutaneous. The note with it: in vivo. Type of data set: ADME, organism-based.
Data set [2] concerns the target T1, von Hippel-Lindau disease tumor suppressor/Androgen receptor (Homo sapiens, UniProt P10275+P40337). Put plainly: Protac activity against VHL/AR in human LNCAP cells assessed as induction of AR degradation incubated for 24 hrs by ELISA. Type of data set: cell-based. Background: In an ELISA, binding on a coated surface is turned into a signal by an enzyme label.
Target sequence in this assay (P10275 whole entry): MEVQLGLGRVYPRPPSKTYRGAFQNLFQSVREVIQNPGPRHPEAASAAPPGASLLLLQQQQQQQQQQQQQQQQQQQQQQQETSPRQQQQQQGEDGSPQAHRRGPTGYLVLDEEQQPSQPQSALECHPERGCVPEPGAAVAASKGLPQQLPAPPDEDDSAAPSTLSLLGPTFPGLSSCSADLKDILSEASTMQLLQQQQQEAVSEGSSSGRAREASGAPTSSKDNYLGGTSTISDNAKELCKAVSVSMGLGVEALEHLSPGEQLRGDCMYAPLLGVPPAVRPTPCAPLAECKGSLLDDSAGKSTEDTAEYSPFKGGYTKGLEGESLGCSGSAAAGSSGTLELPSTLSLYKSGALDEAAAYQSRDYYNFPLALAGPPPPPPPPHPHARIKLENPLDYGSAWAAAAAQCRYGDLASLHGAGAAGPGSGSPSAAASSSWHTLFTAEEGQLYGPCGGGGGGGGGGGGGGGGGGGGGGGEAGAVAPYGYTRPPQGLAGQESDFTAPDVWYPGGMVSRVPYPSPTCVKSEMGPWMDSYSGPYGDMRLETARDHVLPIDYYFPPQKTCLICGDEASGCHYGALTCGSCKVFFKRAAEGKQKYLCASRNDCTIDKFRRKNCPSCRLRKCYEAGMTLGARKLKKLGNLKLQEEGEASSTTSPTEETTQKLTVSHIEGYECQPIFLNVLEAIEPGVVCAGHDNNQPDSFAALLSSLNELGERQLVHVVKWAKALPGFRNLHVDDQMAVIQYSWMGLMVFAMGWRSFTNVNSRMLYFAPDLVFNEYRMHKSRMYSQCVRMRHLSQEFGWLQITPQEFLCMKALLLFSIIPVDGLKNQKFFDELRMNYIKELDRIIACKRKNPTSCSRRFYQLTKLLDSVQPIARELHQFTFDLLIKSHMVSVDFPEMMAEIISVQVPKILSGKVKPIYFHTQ
Target sequence in this assay (P40337 whole entry): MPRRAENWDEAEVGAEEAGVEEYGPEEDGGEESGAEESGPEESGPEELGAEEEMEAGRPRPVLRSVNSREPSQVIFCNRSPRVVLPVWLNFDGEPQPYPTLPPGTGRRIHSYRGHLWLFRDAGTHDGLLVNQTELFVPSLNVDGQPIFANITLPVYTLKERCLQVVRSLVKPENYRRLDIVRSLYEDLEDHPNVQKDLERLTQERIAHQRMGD

Data set [3] concerns the target T1, von Hippel-Lindau disease tumor suppressor/Androgen receptor. As to the kind of experiment: Protac activity against VHL/AR in human VCAP cells assessed as induction of AR degradation incubated for 24 hrs by ELISA. Type of data set: cell-based.
Target sequence in this assay (P10275 whole entry): as the sequence (P10275 whole entry) above
Target sequence in this assay (P40337 whole entry): as the sequence (P40337 whole entry) above
Data set [4] shares this target. As to the kind of experiment: Protac activity against VHL/AR in human VCAP cells assessed as induction of AR degradation incubated for 24 hrs by ELISA relative to untreated control. Type of data set: cell-based.
Target sequence in this assay (P10275 whole entry, looked up): as the sequence (P10275 whole entry) above
Target sequence in this assay (P40337 whole entry, looked up): as the sequence (P40337 whole entry) above
Data set [5] has the same target. As to the kind of experiment: Protac activity against VHL/AR in human LNCAP cells assessed as induction of AR degradation incubated for 24 hrs by ELISA relative to untreated control. Type of data set: cell-based.
Target sequence in this assay (P10275 whole entry, looked up): as the sequence (P10275 whole entry) above
Target sequence in this assay (P40337 whole entry, looked up): as the sequence (P40337 whole entry) above
Data set [6] is described as follows: Cmax in CD1 mouse at 10 mg/kg, sc by LC/MS/MS analysis. The note with it: in vivo. Type of data set: ADME, organism-based. Set-up: dose 10 mg/kg, route subcutaneous.

With `Cc1ncsc1-c1ccc(CNC(=O)[C@@H]2C[C@@H](O)CN2C(=O)[C@@H](NC(=O)COCCCOCCCCCOc2ccc(N3C(=O)N(c4ccc(C#N)c(C(F)(F)F)c4)C(=O)C3(C)C)cc2)C(C)(C)C)cc1`, the AUC(0-t) at 24 h in data set [1] was in the range of 15600 to 40200 ng·h/mL. Besides, the DC50 in data set [2] and in data set [3] was at most 50 nM throughout. Also, the Emax in data set [4] was 51 to 70%; in data set [5] it was above 71%. For the same compound, the Cmax in data set [6] worked out at 1150 ng/mL.
As for `Cc1ncoc1-c1ccc(CNC(=O)[C@@H]2C[C@@H](O)CN2C(=O)[C@@H](NC(=O)COCc2ccc(OC(=O)N[C@H]3C(C)(C)[C@H](Oc4ccc(C#N)c(Cl)c4)C3(C)C)cc2)C(C)(C)C)cc1`, in data set [1], the AUC(0-t) at 24 h lay within 15600 to 40200 ng·h/mL. The DC50 in data set [2] was at most 50 nM. In addition, the Emax in data set [5] was above 71%.
Consider `Cc1ncsc1-c1ccc(CNC(=O)[C@@H]2C[C@@H](O)CN2C(=O)[C@@H](NC(=O)COCCc2ccc(-c3ccc(C(=O)N[C@H]4C(C)(C)[C@H](Oc5ccc(C#N)c(Cl)c5)C4(C)C)cc3)cc2)C(C)(C)C)cc1`, for which the AUC(0-t) at 24 h in data set [1] fell in the range of 15600 to 40200 ng·h/mL. Further, the half-maximal degradation concentration (DC50) in data set [2] was at most 50 nM. Besides, the maximal effect (Emax) in data set [5] is above 71%. In data set [6], this compound returned a Cmax of 1530 ng/mL.
The compound `CC(C)(C)[C@H](NC(=O)COCCCCCOc1ccc(C(=O)N[C@H]2C(C)(C)[C@H](Oc3ccc(C#N)c(Cl)c3)C2(C)C)cc1)C(=O)N1C[C@H](O)C[C@H]1C(=O)NCc1ccc(-c2cncs2)cc1` displayed an AUC(0-t) at 24 h in data set [1] of 15600 to 40200 ng·h/mL. For the same compound, in data set [2], the DC50 was at most 50 nM. The Emax in data set [5] was above 71%.
For the compound `Cc1ncsc1-c1ccc(CNC(=O)[C@@H]2C[C@@H](O)CN2C(=O)[C@@H](NC(=O)COCCCOCCN2CCC(c3ccc(N4C(=S)N(c5ccc(C#N)c(C(F)(F)F)c5)C(=O)C4(C)C)cc3)CC2)C(C)(C)C)cc1`, the AUC(0-t) at 24 h in data set [1] lay within 15600 to 40200 ng·h/mL. Also, the DC50 in data set [2] is at most 501 nM. The Emax lay within 26 to 50% in data set [4] and 51 to 70% in data set [5].
For the compound `Cc1ncsc1-c1ccc([C@H](C)NC(=O)[C@@H]2C[C@@H](O)CN2C(=O)[C@@H](NC(=O)COCCCCCOc2ccc(C(=O)N[C@H]3C(C)(C)[C@H](Oc4ccc(C#N)c(Cl)c4)C3(C)C)cc2)C(C)(C)C)cc1`, the AUC(0-t) at 24 h in data set [1] was in the range of 15600 to 40200 ng·h/mL. In addition, the DC50 in data set [2] was at most 50 nM. For the same compound, in data set [5], the Emax was above 71%. In data set [6], this compound showed a Cmax of 1900 ng/mL.
